From patent US20200291100A1, “TREATMENT OF AGE-RELATED AND MITOCHONDRIAL DISEASES BY INHIBITION OF HIF-1 ALPHA FUNCTION” (President and Fellows of Harvard College, priority 2012, published 2020)

Legend:
Assay type in all cases: cell-based, mouse
[1] = test system: primary PGC-1α/β KO myotubes; assay: NMN with or without HIF stabilizing compounds in PGC-1α/β KO myotubes, qPCR of mitochondrially-encoded ETC genes; conditions: HIF stabilizing compound added to NMN-treated cells; 1 mM DMOG or 10 μM DFO, 12 hours
Experimental: As a functional test of whether NMN reverses genome asynchrony by depleting cells of HIF-1α, primary PGC-1α/β KO myotubes were incubated with NMN in the presence and absence of the HIF stabilizing compounds DMOG and DFO. […] Primary myoblasts cells were isolated from WT, SIRT1 KO (Price et al., 2012) and PGC-1α/β KO (Zechner et al., 2010) mice as previously described (Price et al., 2012). WT and PGC-1α/β KO primary myoblasts were plated and allowed to differentiate into myotubes by replacing the media with low glucose DMEM supplemented with 2% horse serum (Sigma-Aldrich) for 4 days. After the differentiation the cells were infected with empty vector or flag-SIRT1 adenovirus as described before ([…] al., 2007). Media was replaced with fresh DMEM supplemented with 2% horse serum (Sigma-Aldrich) for an additional 48 hr and, after that the cells were harvested for the different assays as described. […] Quantitative RT-PCR reactions were performed using 1 μM of primers and LightCycler® 480 SYBR Green Master (Roche) on an LightCycler® 480 detection system (Roche). Calculations were performed by a comparative method (2-ΔCT) using 18S as an internal control. For mtDNA analysis, total DNA was extracted with DNeasy blood and tissue kit (Qiagen). mtDNA was amplified using primers specific for the mitochondrial cytochrome c oxidase subunit 2 (COX2) gene and normalized to genomic DNA by amplification of the ribosomal protein s18 (rps18) nuclear gene. Primers were designed using the IDT software (IDT) and the primer sequences can be found in Table 1.

[2] = test system: PGC-1α/β knockout myotubes; assay: HIF stabilizing compounds in PGC-1α/β knockout myotubes with or without SIRT1 overexpression; conditions: SIRT1 adenovirus; 1 mM DMOG or 10 μM DFO, 12 hours
Experimental: Next whether the ability of SIRT1 to regulate mitochondrial function independently of PGC-1α/β is mediated by HIF-1α was tested. […] Furthermore, cells expressing a mutant allele of HIF-1α that is constitutively stabilized due to the replacement of the two hydroxylated prolines with alanines (DPA) (FIG. 7A), caused genome asynchrony similar to hypoxia and treatment with DMOG (FIG. 7B).
Primary myoblasts cells were isolated from WT, SIRT1 KO (Price et al., 2012) and PGC-1α/β KO (Zechner et al., 2010) mice as previously described (Price et al., 2012). WT and PGC-1α/β KO primary myoblasts were plated and allowed to differentiate into myotubes by replacing the media with low glucose DMEM supplemented with 2% horse serum (Sigma-Aldrich) for 4 days. After the differentiation the cells were infected with empty vector or flag-SIRT1 adenovirus as described before (Gerhart-Hines et al., 2007). Media was replaced with fresh DMEM supplemented with 2% horse serum (Sigma-Aldrich) for an additional 48 hr and, after that the cells were harvested for the different assays as described. To investigate the role of HIF-1α in genome asynchrony, PGC-1α/β KO primary myotubes were treated for 12 hours with 1 mM DMOG (Sigma) or 10 μM DFO (Sigma), 24 h after infection with empty vector of flag-SIRT1 adenovirus or after 12 h treatment with […] NMN (Sigma).
RNA from skeletal muscle tissue and C2C12 cells were extracted with RNeasy mini kit (Qiagen) according to the instructions and quantified using the NanoDrop 1000 spectrophotometer (Thermo Scientific). cDNA was synthesized with the iSCRIP cDNA synthesis kit (BioRad) using 600 ng of RNA. Quantitative RT-PCR reactions were performed using 1 μM of primers and LightCycler® 480 SYBR Green Master (Roche) on an LightCycler® 480 detection system (Roche). Calculations were performed by a comparative method (2-ΔCT) using 18S as an internal control. For mtDNA analysis, total DNA was extracted with DNeasy blood and tissue kit (Qiagen). mtDNA was amplified using primers specific for the mitochondrial cytochrome c oxidase subunit 2 (COX2) gene and normalized to genomic DNA by amplification of the ribosomal protein s18 (rps18) nuclear gene. […]
Protein extracts from tissue or C2C12 cells were obtained by lysis in ice-cold lysis buffer (150 mM NaCl, 10 mM Tris HCl (pH 7.4), 1 mM EDTA, 1 mM EGTA, 1% Triton X-100, 0.5% NP-40) supplemented with a cocktail of protease and phosphatase inhibitors (Roche). Protein content was determined by the Bradford protein assay (Biorad), and 50 μg proteins were run on SDS-PAGE under reducing conditions. […] The immunostaining was detected using horseradish peroxidase-conjugated anti-rabbit or anti-mouse immunoglobulin for 1 h at room temperature.

C2C12 cells = assay: SIRT1 inhibition with EX-527 in C2C12 cells; conditions: 10 μM EX-527, 12 h
Experimental: Having shown that HIF-1α stabilization was sufficient to induce genome asynchrony, it was next tested whether it was necessary. […] Knockdown of HIF-1α in C2C12 cells treated with the SIRT1 inhibitor EX-527 prevented genome asynchrony and decline in mitochondrial function, as evidenced by the maintenance of mtDNA content (FIG. 7F), mitochondrial ETC gene expression (FIG. 7G), mitochondrial membrane potential ([…]) and ATP levels (FIG. 7I).
C2C12 cell line (ATCC) was cultured in low glucose Dulbecco's modified eagle medium (DMEM) (Invitrogen) supplemented with 10% FBS (Invitrogen) and a mix of antibiotic and antimycotic (Invitrogen). To inhibit SIRT1, cells were treated the vehicle (0.001% DMSO) or 10 μM EX-527 (Tocris) for 12 h. C2C12 myoblasts were infected with an empty or SIRT1 adenovirus as described before (Gerhart-Hines et al., 2007) and the media was replaced with fresh DMEM for additional 48 h, after that the cells were treated as described before. To test the effects of hypoxia and HIFα stabilization in genome asyncrony, C2C12 myoblasts were exposed to 1% oxygen for 16 h or treated with the vehicle (0.001% DMSO) or DMOG (Cayman) for the same period of time.

PGC-1α/β KO myotubes = assay: EX-527 in PGC-1α/β KO myotubes reconstituted with WT or T177A/S538A PGC-1α, qPCR; conditions: EX-527 48 h
Experimental: RNA from skeletal muscle tissue and C2C12 cells were extracted with RNeasy mini kit (Qiagen) according to the instructions and quantified using the NanoDrop 1000 spectrophotometer (Thermo Scientific). cDNA was synthesized with the iSCRIP cDNA synthesis kit (BioRad) using 600 ng of RNA. Quantitative RT-PCR reactions were performed using 1 μM of primers and LightCycler® 480 SYBR Green Master (Roche) on an LightCycler® 480 detection system (Roche). Calculations were performed by a comparative method (2-ΔCT) using 18S as an internal control. For mtDNA analysis, total DNA was extracted with DNeasy blood and tissue kit (Qiagen). mtDNA was amplified using primers specific for the mitochondrial cytochrome c oxidase subunit 2 (COX2) gene and normalized to genomic DNA by amplification of the ribosomal protein s18 (rps18) nuclear gene. Primers were designed using the IDT software (IDT) and the primer sequences can be found in Table 1.
AMPK-DN blocked the decrease in nuclear-encoded genes observed 48 h after treatment with OHT, but not the decline in mitochondrial-encoded genes (FIG. 13G). In order to determine if this AMPK affect is through PGC-1α PGC-1α/β KO myotubes were reconstituted with either a WT PGC-1α or an AMPK insensitive version of PGC-1α (PGC-1α T177A/S538A) (FIG. 20F). […]

primary myoblasts = assay: Lactate treatment of primary WT myoblasts, NAD+/NADH ratio and HIF-1α immunoblot; conditions: 10 mM lactate, 24 h
From the text: FIGS. 21A-21N provide additional data related to the content of FIG. 14. FIG. 21A depicts HIF-1α target genes (PGK-1, Glut1, PDK1 and Vegfa) expression in gastrocnemius of WT and SIRT1 KO mice. Relative expression values were normalized to WT mice (n=5). FIG. 21B depicts hypoxia response element activity in primary myoblasts isolated from WT and SIRT1 KO mice and treated with or without DMOG. Relative luciferase activity was normalized to WT cells (n=6, *p<0.05 versus WT). FIG. 21C depicts a representative immunoblot of HIF-1a and Tubulin in PGC-1α/β KO myotubes treated with adenovirus overexpressing SIRT1 or empty vector as well as treatment with DMSO or with HIF stabilizing compound DMOG. FIG. 21D depicts NAD+/NADH ration measured in primary WT myoblasts treated with either 10 mM pyruvate, 10 mM lactate or vehicle for 24 h (n=4). […] FIG. 21J depicts mitochondrial DNA content analyzed by qPCR in control, HIF-1α DPA or HIF-2α DPA C2C12 cells treated with adenovirus overexpressing SIRT1 or empty vector. […] FIG. 21K depicts ARNT mRNA analyzed by qPCR in C2C12 cells infected with ARNT or nontargeting shRNA. […] FIG. 21L depicts mitochondrial DNA content analyzed by qPCR in C2C12 cells infected with ARNT or nontargeting shRNA. […] FIG. 21M depicts ND1, Cytb, COX1 and ATP6 mRNA analyzed by qPCR in C2C12 cells infected with ARNT or nontargeting shRNA. […] Values are expressed as mean±SEM. […]

## CC(=O)N(O)CCCCCNC(=O)CCC(=O)N(O)CCCCCNC(=O)CCC(=O)N(O)CCCCCN [DFO, desferrioxamine]
[1]
  effect on NMN-induced expression of mitochondrially-encoded ETC genes: completely abolished
[2]
  effect on induction of mitochondrial ETC genes by SIRT1 overexpression: completely blocked

## NC(=O)C1CCCc2c1[nH]c1ccc(Cl)cc21 (stereo not shown) [EX-527]
C2C12 cells
  genome asynchrony: induced
PGC-1α/β KO myotubes; in the presence of WT PGC-1α
  expression of nuclear- and mitochondrial-encoded genes: decreased both nuclear- and mitochondrial-encoded genes
PGC-1α/β KO myotubes; in the presence of the PGC-1α T177A/S538A mutant
  expression of nuclear- and mitochondrial-encoded genes: only the mitochondrial-encoded genes decreased

## CC(O)C(=O)O (stereo not shown) [lactate]
Primary myoblasts
  HIF-1α protein (immunoblot): induces HIF-1α protein stabilization
  NAD+/NADH ratio: decreasing
